The results in this text go back to patent publication US20070027201A1 (Wyeth, priority 2005, published 2007).

pIC50: −log10 of the molar value. A value given as a limit tells only on which side of the number the result lay.

The target in the experiment is T1, progesterone receptor (Homo sapiens, UniProt P06401).
T1 sequence (P06401 1-933): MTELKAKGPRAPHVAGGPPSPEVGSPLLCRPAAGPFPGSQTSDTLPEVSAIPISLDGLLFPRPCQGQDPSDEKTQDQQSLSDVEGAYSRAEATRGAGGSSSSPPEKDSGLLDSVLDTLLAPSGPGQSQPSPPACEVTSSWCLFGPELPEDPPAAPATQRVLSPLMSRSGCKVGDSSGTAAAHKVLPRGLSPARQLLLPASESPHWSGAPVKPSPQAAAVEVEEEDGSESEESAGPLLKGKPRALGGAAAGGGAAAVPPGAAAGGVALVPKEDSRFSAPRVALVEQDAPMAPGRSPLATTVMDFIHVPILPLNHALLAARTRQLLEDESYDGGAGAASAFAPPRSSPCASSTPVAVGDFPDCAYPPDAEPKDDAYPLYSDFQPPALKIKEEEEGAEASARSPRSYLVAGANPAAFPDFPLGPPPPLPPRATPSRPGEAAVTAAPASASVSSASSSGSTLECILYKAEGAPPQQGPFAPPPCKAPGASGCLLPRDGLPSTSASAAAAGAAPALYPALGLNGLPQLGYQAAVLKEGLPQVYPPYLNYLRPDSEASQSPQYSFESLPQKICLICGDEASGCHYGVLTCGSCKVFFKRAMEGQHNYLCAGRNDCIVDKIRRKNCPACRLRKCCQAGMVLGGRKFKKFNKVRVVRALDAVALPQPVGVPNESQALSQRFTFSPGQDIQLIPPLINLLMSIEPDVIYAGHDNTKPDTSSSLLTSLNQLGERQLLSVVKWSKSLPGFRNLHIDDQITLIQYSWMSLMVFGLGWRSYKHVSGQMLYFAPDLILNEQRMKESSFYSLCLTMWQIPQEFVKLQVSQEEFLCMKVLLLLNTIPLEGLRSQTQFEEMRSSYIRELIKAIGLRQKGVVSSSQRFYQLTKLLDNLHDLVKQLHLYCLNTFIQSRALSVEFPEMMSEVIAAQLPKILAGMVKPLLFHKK
Nature of the experiment: T47D alkaline phosphatase assay for progesterone receptor modulator (antagonist) activity. Particulars: T47D cells; for pIC50: antagonist mode in the presence of 1 nM progesterone, 24 hours; for inhibition at 3 µM: at Active Dose 3000 nM. The arrangement: endogenous in cells; host or cells: T47D cells. It is filed as cell-based. On the procedure:
An assay was performed to identify compounds having progesterone receptor modulator activity. This assay identifies progestins or antiprogestins by determining a compound's effect on alkaline phosphatase activity in T47D cells.
Culture medium: DMEM:F12 (1:1) (GIBCO, BRL) supplemented with 5% (v/v) charcoal stripped fetal bovine serum (not heat-inactivated), 100 U/mL penicillin, 100 μg/mL streptomycin, and 2 mM the GlutaMax® reagent (GIBCO, BRL).
Alkaline phosphatase assay buffer: • I. 0.1M Tris-HCl, pH 9.8, containing 0.2% the Triton™ X-100 reagent • II. 0.1M Tris-HCl, pH 9.8, containing 4 mM p-nitrophenyl phosphate (Sigma).
Frozen T47D cells are thawed in a 37° C. water bath and diluted to 280,000 cells/mL in culture medium. To each well in a 96-well plate (Falcon, Becton Dickinson Labware), 180 μL of diluted cell suspension is added.
Twenty μL of reference or test compounds diluted in the culture medium is then added to each well. When testing for progestin antagonist activity, reference antiprogestins or test compounds are added in the presence of 1 nM progesterone. The cells are incubated at 37° C. in a 5% CO2/humidified atmosphere for 24 hours.
For high throughput screening, one concentration of each compound will be tested at 0.3 μg/mL. Based on an average molecular weight of 300 g/mol for the compounds in the library, the concentration is approximately 1 μM. Subsequently, active compounds will be tested in dose response assays to determine EC50 and IC50.
At the end of treatment, the medium is removed from the plate. Fifty μL of assay buffer I is added to each well. The plates are shaken in a titer plate shaker for 15 minutes. Then 150 μL of assay buffer II is added to each well. Optical density measurements are taken at 5 minute intervals for 30 minutes at a test wavelength of 405 nm.
Analysis of dose-response data. For reference and test compounds, a dose response curve is generated for dose (x-axis) vs. the rate of enzyme reaction (slope) (y-axis). Square root-transformed data are used for analysis of variance and nonlinear dose response curve fitting for both agonist and antagonist modes. Huber weighting is used to down-weight the effects of outliers. EC50 or IC50 values are calculated from the retransformed values. The JMP® software (SAS Institute, Inc.) is used for both one-way analysis of variance and non-linear dose response analysis in both single dose and dose response studies.
Progesterone and trimegestone are reference progestins and RU486 is the reference antiprogestin. All reference compounds are run in full dose response curves and the EC50 and IC50 values are calculated.
In the table provided above, the IC50 values show the relative progesterone receptor antagonist activity in this assay. Lower numbers are indicative of higher potency, i.e., greater PR antagonist activity. Further, the assay has a standard deviation of about ±6.

A word on the pIC50: it is the IC50 on a negative log10 scale, so that one unit is a factor of ten. As to `CC(C)S(=O)(=O)Nc1cc(F)c(-c2ccc(C#N)n2C)cc1F` [Example 50, N-[4-(5-cyano-1-methyl-1H-pyrrol-2-yl)-2,5-difluorophenyl]propane-2-sulfonamide], the pIC50 is 6.64.
`Cn1c(C#N)ccc1-c1cc(F)c(NS(C)(=O)=O)cc1F` [Example 46, N-[4-(5-cyano-1-methyl-1H-pyrrol-2-yl)-2,5-difluorophenyl]-methane-sulfonamide]: the “Active Dose” value was determined as 10 µM and the negative logarithm of the IC50 (pIC50) is 7.40.
On to `CCCCS(=O)(=O)Nc1ccc(-c2ccc(C#N)n2C)c(F)c1` [Example 43, N-[4-(5-cyano-1-methyl-1H-pyrrol-2-yl)-3-fluorophenyl]butane-1-sulfonamide], for which the pIC50 is 8.18.
Still for that read-out and setting: next, `Cn1c(C#N)ccc1-c1ccc(NS(=O)(=O)c2ccccc2)cc1` [Example 21, N-[4-(5-cyano-1-methyl-1H-pyrrol-2-yl)phenyl]benzenesulfonamide]: about 7.52.
With `CCS(=O)(=O)Nc1ccc(-c2ccc(C#N)n2C)c(F)c1` [Example 41, N-[4-(5-cyano-1-methyl-1H-pyrrol-2-yl)-3-fluorophenyl]ethanesulfonamide], the “Active Dose” value came out at 10 µM and the pIC50 was 8.42.
Take `C=C(C)C(=O)Nc1ccc(-c2ccc(C#N)n2C)cc1` [Example 12, N-[4-(5-cyano-1-methyl-1H-pyrrol-2-yl)phenyl]-2-methylacrylamide]: the pIC50 was 7.01.
With `CCS(=O)(=O)Nc1cc(F)c(-c2ccc(C#N)n2C)cc1F` [Example 47, N-[4-(5-cyano-1-methyl-1H-pyrrol-2-yl)-2,5-difluorophenyl]ethane-sulfonamide], the pIC50 was 7.66.
On the same count and under the same terms, for `CCCS(=O)(=O)Nc1ccc(-c2ccc(C#N)n2C)c(F)c1` [Example 42, N-[4-(5-cyano-1-methyl-1H-pyrrol-2-yl)-3-fluorophenyl]propane-1-sulfonamide] the value was 8.46; for `Cn1c(C#N)ccc1-c1ccc(NC(=O)c2ccco2)cc1` [Example 3, N-[4-(5-cyano-1-methyl-1H-pyrrol-2-yl)phenyl]-2-furamide], 6.90.
Still for that read-out and setting: for `Cn1c(C#N)ccc1-c1ccc(NS(=O)(=O)CC(F)(F)F)cc1` [Example 19, N-[4-(5-cyano-1-methyl-1H-pyrrol-2-yl)phenyl]-2,2,2-trifluoroethanesulfonamide] the value was 7.23.
Consider `CCCCS(=O)(=O)Nc1cc(F)c(-c2ccc(C#N)n2C)c(F)c1` [Example 82, N-[4-(5-cyano-1-methyl-1H-pyrrol-2-yl)-3,5-difluorophenyl]butane-1-sulfonamide], for which the pIC50 was 8.07.
`CC(C)S(=O)(=O)Nc1ccc(-c2ccc(C#N)n2C)cc1` [Example 23, N-[4-(5-cyano-1-methyl-1H-pyrrol-2-yl)phenyl]propane-2-sulfonamide]: the negative logarithm of the IC50 (pIC50) was 8.82.
Take `CCCCn1c(C#N)ccc1-c1ccc(NS(=O)(=O)CC)cc1` [Example 68, N-[4-(1-butyl-5-cyano-1H-pyrrol-2-yl)phenyl]ethanesulfonamide]: the pIC50 is 6.26.
On the same count and under the same terms, for `CC(C)COC(=O)Nc1ccc(-c2ccc(C#N)n2C)cc1` [Example 14, Isobutyl[4-(5-cyano-1-methyl-1H-pyrrol-2-yl)phenyl]carbamate] the value was 6.42; for `C#CCn1c(C#N)ccc1-c1ccc(NS(=O)(=O)CC)cc1` [Example 70, N-[4-(5-cyano-1-prop-2-yn-1-yl-1H-pyrrol-2-yl)phenyl]ethanesulfonamide], 6.10; for `CCc1cc(-c2ccc(C#N)n2C)ccc1NC#N` [Example 30, [4-(5-cyano-1-methyl-1H-pyrrol-2-yl)-2-ethylphenyl]cyanamide], about 6.52.
As for `COc1cc(NC#N)ccc1-c1ccc(C#N)n1C` [Example 36, [4-(5-cyano-1-methyl-1H-pyrrol-2-yl)-3-methoxyphenyl]cyanamide], the negative-log IC50 (pIC50) was 7.08.
With `Cn1c(C#N)ccc1-c1ccc(N)cc1` [Example 1, 5-(4-aminophenyl)-1-methyl-1H-pyrrole-2-carbonitrile], the pIC50 was 6.96.
`Cc1ccc(S(=O)(=O)Nc2ccc(-c3ccc(C#N)n3C)cc2)cc1` [Example 22, N-[4-(5-cyano-1-methyl-1H-pyrrol-2-yl)phenyl]-4-methylbenzenesulfonamide]: the pIC50 was about 5.52.
For `Cn1c(C#N)ccc1-c1ccc(NC(=O)Nc2ccc(-c3ccc(C#N)n3C)cc2)cc1` [Example 15, N,N′-bis[4-(5-cyano-1-methyl-1H-pyrrol-2-yl)phenyl]urea], the pIC50 was 6.19.
As usually defined, the inhibition is the relative decrease from the control value, in per cent. Read a low inhibition as a weak effect. For `CCS(=O)(=O)Nc1ccc(-c2ccc(C#N)n2CCCc2ccccc2)cc1` [Example 71, N-{4-[5-cyano-1-(3-phenylpropyl)-1H-pyrrol-2-yl]phenyl}ethanesulfonamide], the “Active Dose” value amounted to 3 µM and at 3 µM the inhibition was 15%.
`Cn1c(C#N)ccc1-c1ccc(NC(=O)C2CCCCC2)cc1` [Example 11, N-[4-(5-cyano-1-methyl-1H-pyrrol-2-yl)phenyl]cyclohexane-carboxamide]: the pIC50 is 6.49.
As for `Cn1c(C#N)ccc1-c1ccc(NC#N)c(F)c1` [Example 34, [4-(5-cyano-1-methyl-1H-pyrrol-2-yl)-2-fluorophenyl]cyanamide], the negative-log IC50 (pIC50) was 6.17.
Consider `COc1cc(-c2ccc(C#N)n2C)ccc1NC#N` [Example 35], for which the negative-log IC50 (pIC50) is over 6.52.
The same measure, in the same setting: for `CCCCS(=O)(=O)Nc1cc(F)c(-c2ccc(C#N)n2C)cc1F` [Example 49, N-[4-(5-cyano-1-methyl-1H-pyrrol-2-yl)-2,5-difluorophenyl]butane-1-sulfonamide] the value was 6.57; for `CCS(=O)(=O)Nc1ccc(-c2ccc(C#N)n2C)cc1` [Example 24, N-[4-(5-cyano-1-methyl-1H-pyrrol-2-yl)phenyl]ethanesulfonamide], 8.00.
`Cn1c(C#N)ccc1-c1ccc(NS(C)(=O)=O)c(C#N)c1` [Example 77, N-[2-cyano-4-(5-cyano-1-methyl-1H-pyrrol-2-yl)phenyl]methanesulfonamide]: the “Active Dose” value stood at 3 µM and testing at 3 µM gave an inhibition of 50%.
For `CCCS(=O)(=O)Nc1ccc(-c2ccc(C#N)n2C)cc1OC(F)(F)F` [Example 61, N-[4-(5-cyano-1-methyl-1H-pyrrol-2-yl)-2-(trifluoromethoxy)phenyl]propane-1-sulfonamide], the pIC50 was 7.39.
Still for that read-out and setting: next, `Cn1c(C#N)ccc1-c1ccc(NS(C)(=O)=O)cc1` [Example 25, N-[4-(5-cyano-1-methyl-1H-pyrrol-2-yl)phenyl]methanesulfonamide]: 8.09; `Cn1c(C#N)ccc1-c1ccc(NS(C)(=O)=O)c(F)c1` [Example 26, N-[4-(5-cyano-1-methyl-1H-pyrrol-2-yl)-2-fluorophenyl]methane-sulfonamide]: 7.54.
